From patent US20260199479A1, “DRUG LINKER AND LINKER-CONJUGATED COMPOUND” (Anti-Microbial Savior BioteQ Co., Ltd., priority 2022, published 2026)
Converted amounts (≈) assume the structure as drawn.

Key:
[1] = Water solubility test (HPLC); format: physicochemical; settings: double distilled water, thermodynamic from solid
Protocol: 5 mg of the standard test compound was weighed and dissolved in 5 mL of IPA as a stock solution (1 mg/mL). Double distilled water was then diluted to prepare 1000, 100, 50, 25, 12.5, 10, 5, 2.5, 1.25, 1, 0.5, 0.25, 0.125 μg/mL standard solution calibration lines. 60 μL of each concentration standard solution was used for HPLC analysis. Peak areas were integrated to establish a calibration line, and the accuracy of the analysis method was evaluated through the correlation coefficient (R-squared).
1 mL of double distilled water was weighed into a microcentrifuge tube and the test compound was dissolved. Undissolved compounds were ensured to be still present by vortexing for 5 min and sonicating for 20 min. After centrifugation, the supernatant was filtered through a 0.22 μm PTEF membrane. The […] was analyzed by HPLC and the water solubility was calculated from the peak area.

NOZ cells = assay: Cytotoxicity screening, PrestoBlue cell viability; format: cell-based, human; settings: gallbladder cancer cells
Protocol: (§1) NOZ cells, human gallbladder cancer cells, were obtained from the Japanese Collection of Research Bioresources Cell Bank (JCRB, Japan). Cells were cultured in 90% William's E culture medium (Gibco, USA), 10% fetal bovine serum (FBS) (Gibco, USA), and 1% antibiotics (1×penicillin, streptomycin and glutamine) (Gibco, USA).
(§2) Cell viability was assessed with PrestoBlue assay (Invitrogen, USA). Cells were seeded into 96-well plates and cultured with test compounds according to the manufacturer's protocol. After 48 hours of exposure to test compounds, the culture medium was discarded and rinsed with PBS. Then, add 10 μL PrestoBlue reagent containing 90 μL culture medium to the cells and incubate the cell plate at 37° C. in the dark for 120 min. Absorbance was measured at the experimental wavelength of 570 nm and the normalized wavelength of 600 nm in a SpectraMax iD3 microplate reader. […] Cell viability was expressed as a percentage relative to the control, and calculated using the following formula: cell viability (%)=[(Absorbance of test wells at 570 nm−Absorbance of only culture medium wells at 570 nm−Absorbance of test wells at 600 nm+Absorbance of only culture medium wells at 600 nm)/Absorbance of the control well at 570 nm−Absorbance of only culture medium wells at 570 nm-Absorbance of the control well at 600 nm+Absorbance nm of only culture medium wells at 600 nm)]×100.

HuCCT1 cells = assay: Cytotoxicity screening, PrestoBlue cell viability; format: cell-based, human; settings: HuCCT1, 20 μg/mL
Protocol: HuCCT1 cells, human cholangiocarcinoma cells, were obtained from iCell Bioscience Inc. (iCell, China). Cells were cultured in 90% RPMI 1640 culture medium (Gibco, USA), 10% fetal bovine serum (FBS) (Gibco, USA), and 1% antibiotics (1×penicillin, streptomycin and glutamine) (Gibco, USA).
as §2

HuH28 cells = assay: Cytotoxicity screening, PrestoBlue cell viability; format: cell-based, human; settings: HuH28, 20 μg/mL
Protocol: as §1, with “HuH28” for “NOZ”, “liver, and cholangiocarcinoma” for “gallbladder cancer”, “RPMI 1640” for “William's E”
as §2

PANC-1 = assay: Cytotoxicity screening, PrestoBlue cell viability; format: cell-based, human; settings: PANC-1, pancreatic cancer cells
Protocol: PANC-1, human pancreatic epithelioid carcinoma, was obtained from the American Type Culture Collection (ATCC, USA). Cells were cultured in DMEM culture medium (Gibco, USA) containing 10% FBS (Gibco, USA) and 1% antibiotics (1×penicillin, streptomycin and glutamic acid) (Gibco, USA).
(§3) Cell viability was assessed with PrestoBlue assay (Invitrogen, USA). Cells were seeded into 96-well plates and cultured with test compounds according to the manufacturer's protocol. After 48 hours of exposure to test compounds, the culture medium was discarded and rinsed with PBS. Then, add 10 μL PrestoBlue reagent containing 90 μL culture medium to the cells and incubate the cell plate at 37° C. in the dark for 120 min. Absorbance was measured at the experimental wavelength of 570 nm and the normalized wavelength of 600 nm in a SpectraMax iD3 microplate reader. The result was corrected by subtracting the blank value. Cell viability was expressed as a percentage relative to the control, and calculated using the following formula: cell viability (%)=[(Absorbance of test wells at 570 nm−Absorbance of only culture medium wells at 570 nm−Absorbance of test wells at 600 nm+Absorbance of only culture medium wells at 600 nm)/Absorbance of the control well at 570 nm−Absorbance of only culture medium wells at 570 nm-Absorbance of the control well at 600 nm+Absorbance nm of only culture medium wells at 600 nm)]×100.

BxPC-3 = assay: Cytotoxicity screening, PrestoBlue cell viability; format: cell-based, human; settings: BxPC-3, pancreatic cancer cells
Protocol: (§4) BxPC-3, human pancreatic adenocarcinoma cells, were obtained from the Bioresource Collection and Research Center (BCRC, Taiwan, China). Cells were cultured in RPMI 1640 culture medium (Gibco, USA) containing 10% FBS (Gibco, USA) and 1% antibiotics (1×penicillin, streptomycin and glutamic acid) (Gibco, USA).
as §2

AsPC-1 = assay: Cytotoxicity screening, PrestoBlue cell viability; format: cell-based, human; settings: AsPC-1, pancreatic cancer cells
Protocol: as §4, with “AsPC-1,” for “BxPC-3,”, “adenocarcinoma ascites metastatic” for “adenocarcinoma”
as §2

Caco-2 = assay: Cytotoxicity screening, PrestoBlue cell viability; format: cell-based; settings: Caco-2, colon cancer cells
Protocol: Caco-2, colorectal adenocarcinoma, was obtained from the Bioresource Collection and Research Center ([…]). Cells were cultured in minimal essential Eagle's culture medium (FBS) (Gibco, USA) containing 2 mM L-glutamic acid, 1.5 mg/mL sodium bicarbonate, 0.1 mM non-essential amino acids, 1.0 mM sodium pyruvate (Gibco, USA), 20% fetal bovine serum (Gibco, USA), and 1% antibiotics (1×penicillin, streptomycin and glutamic acid) (Gibco, USA).
as §2, with “Then, add 10 μL PrestoBlue reagent containing 90 μL culture medium to the cells and incubate the cell plate at 37° C. in the dark for 120 min.” left out

HCT-15 = assay: Cytotoxicity screening, PrestoBlue cell viability; format: cell-based; settings: HCT-15, colon cancer cells
Protocol: as §4, with “HCT-15, colorectal adenocarcinoma, was” for “BxPC-3, human pancreatic adenocarcinoma cells, were”, “fetal bovine serum (FBS)” for “FBS”
as §2

MCF-7 = assay: Cytotoxicity screening, PrestoBlue cell viability; format: cell-based, human; settings: MCF-7, breast cancer cells
Protocol: MCF7, human breast cancer, was obtained from the Bioresource Collection and Research Center (BCRC, Taiwan, China). Cells were cultured in minimal essential Eagle's culture medium (FBS) (Gibco, USA) containing 2 mM L-glutamic acid, 1.5 mg/mL sodium bicarbonate, 0.1 mM non-essential amino acids, 1.0 mM sodium pyruvate (Gibco, USA), 10% fetal bovine serum (Gibco, USA) and 1% antibiotics (1×penicillin, streptomycin and glutamic acid) (Gibco, USA).
as §2, with “Then, add 10 μL PrestoBlue reagent containing 90 μL culture medium to the cells and incubate the cell plate at 37° C. in the dark for 120 min.” left out

A549 = assay: Cytotoxicity screening, PrestoBlue cell viability; format: cell-based, human; settings: A549, lung cancer cells
Protocol: as §4, with “A549,” for “BxPC-3,”, “non-small cell lung cancer” for “pancreatic adenocarcinoma”, “F12K” for “RPMI 1640”
as §2

AML12 cells = assay: Cytotoxicity screening, PrestoBlue cell viability; format: cell-based, mouse; settings: AML12, normal hepatocytes
Protocol: AML12 cells, alpha mouse liver 12, were obtained from the American Type Culture Collection (ATCC, USA). Cells were cultured in DMEM: F12 culture medium (Gibco, USA), 10% fetal bovine serum (FBS) (Gibco, USA), 10 μg/mL insulin, 5.5 μg/mL transferrin, 5 ng/ml selenium, 40 ng/ml dexamethasone (Gibco, USA), and 1% antibiotics (1×penicillin, streptomycin and glutamic acid) (Gibco, USA).
as §2, with “Then, add 10 μL PrestoBlue reagent containing 90 μL culture medium to the cells and incubate the cell plate at 37° C. in the dark for 120 min.” left out

Vero E6 cells = assay: Cytotoxicity screening, PrestoBlue cell viability; format: cell-based, cercopithecus aethiops; settings: Vero E6, normal kidney cells
Protocol: Vero E6 cells, cercopithecus aethiops renal epithelial cells, were obtained from the American Type Culture Collection (ATCC, USA). Cells were cultured in Dulbecco's Modified Eagle Medium (DMEM) (Gibco, USA) containing 10% FBS (Gibco, USA), 100 U/mL penicillin, and 100 μg/mL streptomycin (Gibco, USA). Cell viability was assessed with PrestoBlue assay (Invitrogen, USA). Cells were seeded into 96-well plates and cultured with test compounds according to the manufacturer's protocol. After 48 hours of exposure to test compounds, the culture medium was discarded and rinsed with PBS. Then, add 10 μL PrestoBlue reagent containing 90 μL culture medium to the cells and incubate the cell plate at 37° C. in the dark for 120 min. Absorbance was measured at the experimental wavelength of 570 nm and the normalized wavelength of 600 nm in a SpectraMax iD3 microplate reader. […] Cell viability was expressed as a percentage relative to the control, and calculated using the following formula: cell viability (%)=[(Absorbance of test wells at 570 nm−Absorbance of only culture medium wells at 570 nm−Absorbance of test wells at 600 nm+Absorbance of only culture medium wells at 600 nm)/Absorbance of the control well at 570 nm−Absorbance of only culture medium wells at 570 nm-Absorbance of the control well at 600 nm+Absorbance nm of only culture medium wells at 600 nm)]×100.

[2] = system: normal cells or cancer cells; assay: Cytotoxicity tests in various cell lines (summary); format: cell-based; settings: normal cells and cancer cells, various cell lines (Table 3)
Protocol: as §3
Taking the linker of the present invention (n=2; X, Y, Z=O; R^1, R^2, R^4=H; R^3=CH3) as an example, the linker has significant advantages in terms of synthetic elastic properties. […]

## CC(C)=CCC/C(C)=C/CC/C(C)=C/CO [Farnesol, reference compound]
[1]
  solubility: 87.4 µg/mL (≈ 393 µM)

## C/C(=C\CO)CC/C=C(\C)CCC(O)C(C)C(=O)O (stereo not drawn) [Linker of the present invention, (6E,10E)-3,12-dihydroxy-2,6,10-trimethyldodec-6,10-dienoic acid]
[1]
  solubility: 780 µg/mL (≈ 2890 µM)
NOZ cells
  20 μg/mL 48-hour survival rate: 107.26 ± 14.11%
HuCCT1 cells
  20 μg/mL 48-hour survival rate: 110.04 ± 0.17%
HuH28 cells
  20 μg/mL 48-hour survival rate: 87.92 ± 5.14%
PANC-1
  20 μg/mL 48-hour survival rate: 106.67 ± 8.24%
BxPC-3
  20 μg/mL 48-hour survival rate: 91.33 ± 5.93%
AsPC-1
  20 μg/mL 48-hour survival rate: 93.02 ± 5.01%
Caco-2
  20 μg/mL 48-hour survival rate: 99.94 ± 3.16%
HCT-15
  20 μg/mL 48-hour survival rate: 88.96 ± 15.45%
MCF-7
  20 μg/mL 48-hour survival rate: 89.45 ± 8.95%
A549
  20 μg/mL 48-hour survival rate: 82.28 ± 5.53%
AML12 cells
  20 μg/mL 48-hour survival rate: 91.99 ± 2.6%
Vero E6 cells
  20 μg/mL 48-hour survival rate: 96.28 ± 3.66%
[2]
  cytotoxicity: not cytotoxic
